What was measured:
Test in all cases: Comprehensive analysis (screening) of hORs against n-hexanal
Assay type in all cases: cell-based
[1] = target: T1, OR10A2 (Homo sapiens, UniProt Q9H208); conditions: OR10A2, 500 μM n-hexanal, with the TAR-Tat system (hOR/pHEK), n = 1
T1 construct: Lucy tag (N); expressed in transfected cells; host or cells: Flp-In T-REx-293 cells stably expressing RTP1S, Gαolf and Ric8-b
T1 sequence (Q9H208 1-303): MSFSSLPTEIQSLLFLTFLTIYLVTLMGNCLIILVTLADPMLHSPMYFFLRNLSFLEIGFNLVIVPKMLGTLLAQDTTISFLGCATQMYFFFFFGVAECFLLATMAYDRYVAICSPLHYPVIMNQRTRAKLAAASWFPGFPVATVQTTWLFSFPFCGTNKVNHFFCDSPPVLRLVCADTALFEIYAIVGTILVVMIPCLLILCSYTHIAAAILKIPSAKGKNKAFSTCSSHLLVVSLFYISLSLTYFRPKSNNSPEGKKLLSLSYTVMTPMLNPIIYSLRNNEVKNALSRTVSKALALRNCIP
Method: (§1) Transfection was performed as described in the “hOR assay,” but 12.5 ng of 379 hOR plasmids (hOR/pBApo and hOR/pHEK) was transfected with the 12.5 ng pGlosensor^TM-22F cAMP biosensor plasmid (Promega) in 384 plates per well. After loading the GloSensor cAMP substrate and preincubation, the assay buffer was added (30 μL/well). After 10 min of equilibration, luminescence was measured (L0). Then, 50 mM n-hexanal, which was diluted with 10% DMSO/assay buffer, was added (4.7 μL/well). After 9 min, luminescence was measured (L9min). All the L9min values were subtracted by the L0 value (ΔL).

[2] = target: T2, OR2Z1 (Homo sapiens, UniProt Q8NG97); conditions: OR2Z1, 500 μM n-hexanal, with the TAR-Tat system (hOR/pHEK), n = 1
T2 construct: Lucy tag (N); FLAG (N); Rho tag (N); expressed in transfected cells; host or cells: Flp-In T-REx-293 cells stably expressing RTP1S, Gαolf and Ric8-b
T2 sequence (Q8NG97 1-314): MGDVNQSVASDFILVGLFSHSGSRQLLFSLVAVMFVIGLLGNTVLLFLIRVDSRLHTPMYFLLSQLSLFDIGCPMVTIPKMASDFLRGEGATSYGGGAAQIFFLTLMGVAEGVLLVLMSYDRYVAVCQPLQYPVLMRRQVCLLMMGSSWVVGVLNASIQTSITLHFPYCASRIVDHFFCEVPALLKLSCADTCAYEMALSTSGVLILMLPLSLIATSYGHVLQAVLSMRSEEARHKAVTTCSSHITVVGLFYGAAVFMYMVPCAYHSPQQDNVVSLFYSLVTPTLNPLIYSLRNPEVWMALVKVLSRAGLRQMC
Method: as §1

[3] = target: T3, OR8B4 (Homo sapiens, UniProt Q96RC9); conditions: OR8B4, 500 μM n-hexanal, with the TAR-Tat system (hOR/pHEK), n = 1
T3 construct: Lucy tag (N); FLAG (N); Rho tag (N); expressed in transfected cells; host or cells: Flp-In T-REx-293 cells stably expressing RTP1S, Gαolf and Ric8-b
T3 sequence (Q96RC9 1-309): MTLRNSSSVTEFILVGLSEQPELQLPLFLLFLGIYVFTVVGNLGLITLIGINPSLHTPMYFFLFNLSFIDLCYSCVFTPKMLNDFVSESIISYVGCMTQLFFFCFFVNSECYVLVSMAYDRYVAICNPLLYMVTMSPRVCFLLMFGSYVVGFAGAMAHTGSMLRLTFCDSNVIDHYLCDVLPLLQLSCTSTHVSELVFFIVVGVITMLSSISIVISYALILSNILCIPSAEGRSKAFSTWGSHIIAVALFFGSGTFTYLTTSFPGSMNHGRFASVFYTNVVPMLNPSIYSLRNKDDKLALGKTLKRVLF
Method: as §1

[4] = target: T4, OR5K1 (Homo sapiens, UniProt Q8NHB7); conditions: OR5K1, 500 μM n-hexanal, with the TAR-Tat system (hOR/pHEK), n = 1
T4 construct: Lucy tag (N); FLAG (N); Rho tag (N); expressed in transfected cells; host or cells: Flp-In T-REx-293 cells stably expressing RTP1S, Gαolf and Ric8-b
T4 sequence (Q8NHB7 1-308): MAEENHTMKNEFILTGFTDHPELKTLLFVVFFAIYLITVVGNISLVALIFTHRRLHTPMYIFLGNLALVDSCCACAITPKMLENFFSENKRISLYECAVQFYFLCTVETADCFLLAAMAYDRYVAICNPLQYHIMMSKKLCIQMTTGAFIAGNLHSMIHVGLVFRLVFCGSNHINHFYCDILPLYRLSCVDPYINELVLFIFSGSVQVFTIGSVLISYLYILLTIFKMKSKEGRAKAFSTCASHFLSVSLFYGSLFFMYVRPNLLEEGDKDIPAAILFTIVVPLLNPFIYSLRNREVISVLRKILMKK
Method: as §1

[5] = target: T5, OR2B3 (Homo sapiens, UniProt O76000); conditions: OR2B3, 500 μM n-hexanal, with the TAR-Tat system (hOR/pHEK), n = 1
T5 construct: Lucy tag (N); FLAG (N); Rho tag (N); expressed in transfected cells; host or cells: Flp-In T-REx-293 cells stably expressing RTP1S, Gαolf and Ric8-b
T5 sequence (O76000 1-313): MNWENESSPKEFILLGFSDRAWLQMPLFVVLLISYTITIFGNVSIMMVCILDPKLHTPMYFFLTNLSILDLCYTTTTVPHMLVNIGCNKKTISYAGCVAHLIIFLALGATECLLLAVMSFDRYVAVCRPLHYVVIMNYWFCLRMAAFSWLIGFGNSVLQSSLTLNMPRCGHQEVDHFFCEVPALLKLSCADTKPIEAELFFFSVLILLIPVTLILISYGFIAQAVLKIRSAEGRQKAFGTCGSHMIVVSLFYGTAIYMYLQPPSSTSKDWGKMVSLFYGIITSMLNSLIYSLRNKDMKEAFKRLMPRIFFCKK
Method: as §1

[6] = target: T6, OR56B1 (Homo sapiens, UniProt Q8NGI3); conditions: OR56B1, 500 μM n-hexanal, with the TAR-Tat system (hOR/pHEK), n = 1
T6 construct: Lucy tag (N); expressed in transfected cells; host or cells: Flp-In T-REx-293 cells stably expressing RTP1S, Gαolf and Ric8-b
T6 sequence (Q8NGI3 1-324): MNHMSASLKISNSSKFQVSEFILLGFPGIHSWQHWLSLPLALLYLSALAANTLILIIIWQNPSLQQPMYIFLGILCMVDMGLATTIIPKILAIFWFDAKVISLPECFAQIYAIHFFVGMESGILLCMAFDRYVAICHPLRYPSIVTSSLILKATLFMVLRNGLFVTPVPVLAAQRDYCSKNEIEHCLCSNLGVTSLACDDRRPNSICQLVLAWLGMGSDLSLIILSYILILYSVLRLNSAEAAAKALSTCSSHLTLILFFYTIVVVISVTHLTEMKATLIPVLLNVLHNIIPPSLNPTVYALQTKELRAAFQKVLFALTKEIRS
Method: as §1

Measured: response value (ΔL)

CCCCCC=O [n-hexanal]
> 500: all assays above

Reference: article PMC11198769, “Enhancement of transcription efficiency by TAR-Tat system increases the functional expression of human olfactory receptors” (PLOS ONE, 2024)
